Patent US5250548A, “Angiotensin II receptor antagonists” (Abbott Laboratories, priority 1992, dated 1993)

What was measured:
[1] = test system: renal artery ligated rats; test: In vivo blood pressure lowering in renal artery ligated hypertensive rats; set-up: species or system rat; conditions: dose of 30 mg/kg
angiotensin II receptor = conditions: cited from earlier work
[2] = cited from earlier work
blood pressure = conditions: after intravenous administration; due to its activity as an angiotensin receptor agonist; cited from earlier work

Row | SMILES | reduction in mean arterial blood pressure (MAP) [1] | antagonism of the actions of angiotensin II (angiotensin II receptor) | oral bioavailability [2] | effect on blood pressure (blood pressure)
1 | CCCN(Cc1ccc(-c2ccccc2-c2nnn[nH]2)cc1)c1ncccc1C(=O)O [Example 88, 2-{N-Propyl-N-[(2'-[1H-tetrazol-5-yl]biphenyl-4-yl)methyl]amino}pyridine-3-carboxylic acid] | caused a reduction in mean arterial blood pressure (MAP) |  |  | 
2 | CNCC(=O)N[C@@H](CCCN=C(N)N)C(=O)N[C@H](C(=O)N[C@@H](Cc1ccc(O)cc1)C(=O)N[C@H](C(=O)N[C@@H](Cc1cnc[nH]1)C(=O)N1CCC[C@H]1C(=O)N[C@@H](C)C(=O)O)C(C)C)C(C)C [saralasin, [Sar^1,Ala^8] angiotensin II] |  | potent antagonist of the actions of angiotensin II | very poor oral bioavailability | initial increase in blood pressure after intravenous administration
